# Assays:
# Format in all cases: functional
# Streptococcus pneumoniae [1] = assay: Antibacterial activity against efflux-resistant Streptococcus pneumoniae B0326 by agar microdilution method
# Haemophilus influenzae = assay: Antibacterial activity against Haemophilus influenzae B0529 by agar microdilution method
# Staphylococcus aureus [2] = assay: Antibacterial activity against efflux-resistant Staphylococcus aureus B0331 by agar microdilution method
# Streptococcus pneumoniae [3] = assay: Antibacterial activity against erythromycin A-susceptible Streptococcus pneumoniae B0541 by agar microdilution method
# Staphylococcus aureus [4] = assay: Antibacterial activity against inducible macrolide-lincosamide-streptogramin B-resistant Staphylococcus aureus B0538 by agar microdilution method
# Staphylococcus aureus [5] = assay: Antibacterial activity against erythromycin A-susceptible Staphylococcus aureus B0329 by agar microdilution method
# Moraxella catarrhalis = assay: Antibacterial activity against Moraxella catarrhalis B0324 by agar microdilution method
# Streptococcus pyogenes [6] = assay: Antibacterial activity against erythromycin A-susceptible Streptococcus pyogenes B0542 by agar microdilution method
# Streptococcus pneumoniae [7] = assay: Antibacterial activity against constitutive macrolide-lincosamide-streptogramin B-resistant Streptococcus pneumoniae B0627 by agar microdilution method
# Staphylococcus aureus [8] = assay: Antibacterial activity against constitutive macrolide-lincosamide-streptogramin B-resistant Staphylococcus aureus B0330 by agar microdilution method
# Streptococcus pyogenes [9] = assay: Antibacterial activity against efflux-resistant Streptococcus pyogenes B0545 by agar microdilution method
# Streptococcus pyogenes [10] = assay: Antibacterial activity against inducible macrolide-lincosamide-streptogramin B-resistant Streptococcus pyogenes B0543 by agar microdilution method
# Streptococcus pyogenes [11] = assay: Antibacterial activity against constitutive macrolide-lincosamide-streptogramin B-resistant Streptococcus pyogenes B0544 by agar microdilution method
SMILES,MIC (Streptococcus pneumoniae [1]) [mg/L],MIC (Haemophilus influenzae) [mg/L],MIC (Staphylococcus aureus [2]) [mg/L],MIC (Streptococcus pneumoniae [3]) [mg/L],MIC (Staphylococcus aureus [4]) [mg/L],MIC (Staphylococcus aureus [5]) [mg/L],MIC (Moraxella catarrhalis) [mg/L],MIC (Streptococcus pyogenes [6]) [mg/L],MIC (Streptococcus pneumoniae [7]) [mg/L],MIC (Staphylococcus aureus [8]) [mg/L],MIC (Streptococcus pyogenes [9]) [mg/L],MIC (Streptococcus pyogenes [10]) [mg/L],MIC (Streptococcus pyogenes [11]) [mg/L]
CC[C@H]1OC(=O)[C@H](C)C(=O)[C@H](C)[C@@H](O[C@@H]2O[C@H](C)C[C@H](N(C)C)[C@H]2O)[C@](C)(OCC(O)CNC2CN(S(=O)(=O)c3ccc4ccncc4c3)CCN2)C[C@@H](C)NC(=O)[C@H](C)[C@H](O)[C@@]1(C)O (some centres undefined),64,> 64,16,≤ 0.125,16,8,8,≤ 0.125,32,> 64,16,16,> 64
C=CCO[C@]1(C)C[C@@H](C)C(=O)N[C@H](C)[C@H](O)[C@@](C)(O)[C@@H](CC)OC(=O)[C@H](C)[C@@H](O[C@@H]2C[C@@](C)(OC)[C@@H](O)[C@H](C)O2)[C@H](C)[C@H]1O[C@@H]1O[C@H](C)C[C@H](N(C)C)[C@H]1O,> 64,64,> 64,> 64,> 64,> 64,4,≤ 0.125,> 64,> 64,> 64,4,> 64
CC[C@H]1OC(=O)[C@H](C)C(=O)[C@H](C)[C@@H](O[C@@H]2O[C@H](C)C[C@H](N(C)C)[C@H]2O)[C@](C)(OCC(O)CNCCc2cccnc2)C[C@@H](C)NC(=O)[C@H](C)[C@H](O)[C@@]1(C)O (some centres undefined),8,8,4,0.5,8,4,1,0.25,2,> 64,2,4,32

# From ChEMBL document CHEMBL1287771, “Novel hybrids of 15-membered 8a- and 9a-azahomoerythromycin A ketolides and quinolones as potent antibacterials” (2010)
